± gives the expanded uncertainty stated by the source.
Assay: xn = mol fraction of the nth substance listed
Conditions: Liquid, Vibrating tube method

c1ccc2sccc2c1 [benzo[b]thiophene] + CCCCCC
Conditions	mass density [kg/m3]
332.9 K, 1028 kPa, x2 = 0.4495	892.5 ± 0.4
332.9 K, 2010 kPa, x2 = 0.4495	893.2 ± 0.4
332.9 K, 3021 kPa, x2 = 0.4495	894.1 ± 0.5
332.9 K, 4018 kPa, x2 = 0.4495	895.3 ± 0.5
332.9 K, 5018 kPa, x2 = 0.4495	896.2 ± 0.5
332.9 K, 6008 kPa, x2 = 0.4495	897 ± 0.5
332.9 K, 7019 kPa, x2 = 0.4495	897.9 ± 0.5
332.9 K, 8016 kPa, x2 = 0.4495	898.8 ± 0.5
332.9 K, 9023 kPa, x2 = 0.4495	899.8 ± 0.5
332.9 K, 10018 kPa, x2 = 0.4495	900.7 ± 0.5
332.9 K, 11007 kPa, x2 = 0.4495	901.6 ± 0.5
332.9 K, 12010 kPa, x2 = 0.4495	902.4 ± 0.5
332.9 K, 13019 kPa, x2 = 0.4495	903.3 ± 0.5
332.9 K, 14015 kPa, x2 = 0.4495	904.2 ± 0.5
332.9 K, 15019 kPa, x2 = 0.4495	905 ± 0.5
332.9 K, 16002 kPa, x2 = 0.4495	905.9 ± 0.5
332.9 K, 17014 kPa, x2 = 0.4495	906.7 ± 0.5
332.9 K, 18017 kPa, x2 = 0.4495	907.5 ± 0.5
332.9 K, 19023 kPa, x2 = 0.4495	908.3 ± 0.5
332.9 K, 20028 kPa, x2 = 0.4495	909.1 ± 0.5
342.55 K, 1028 kPa, x2 = 0.2588	982.2 ± 0.5
342.55 K, 2013 kPa, x2 = 0.2588	983.1 ± 0.5
342.55 K, 3013 kPa, x2 = 0.2588	983.8 ± 0.5
342.55 K, 4017 kPa, x2 = 0.2588	984.7 ± 0.5
342.55 K, 5024 kPa, x2 = 0.2588	985.5 ± 0.5
342.55 K, 6012 kPa, x2 = 0.2588	986.3 ± 0.5
342.55 K, 7004 kPa, x2 = 0.2588	987.1 ± 0.5
342.55 K, 8017 kPa, x2 = 0.2588	987.9 ± 0.5
342.55 K, 9012 kPa, x2 = 0.2588	988.7 ± 0.5
342.55 K, 10016 kPa, x2 = 0.2588	989.5 ± 0.5
342.55 K, 11015 kPa, x2 = 0.2588	990.4 ± 0.5
342.55 K, 12022 kPa, x2 = 0.2588	991.2 ± 0.5
342.55 K, 13030 kPa, x2 = 0.2588	992 ± 0.5
342.55 K, 14011 kPa, x2 = 0.2588	992.8 ± 0.5
342.55 K, 15020 kPa, x2 = 0.2588	993.6 ± 0.5
342.55 K, 16020 kPa, x2 = 0.2588	994.3 ± 0.5
342.55 K, 17017 kPa, x2 = 0.2588	995.1 ± 0.5
342.55 K, 18008 kPa, x2 = 0.2588	995.8 ± 0.5
342.55 K, 19011 kPa, x2 = 0.2588	996.6 ± 0.5
342.55 K, 20013 kPa, x2 = 0.2588	997.4 ± 0.5
342.63 K, 1018 kPa, x2 = 0.0629	1085.6 ± 0.5
342.63 K, 2039 kPa, x2 = 0.0629	1086.3 ± 0.5
342.63 K, 3009 kPa, x2 = 0.0629	1087 ± 0.5
342.63 K, 4022 kPa, x2 = 0.0629	1087.8 ± 0.5
342.63 K, 5025 kPa, x2 = 0.0629	1088.5 ± 0.5
342.63 K, 5925 kPa, x2 = 0.0629	1089.1 ± 0.5
342.63 K, 7031 kPa, x2 = 0.0629	1089.9 ± 0.5
342.63 K, 8009 kPa, x2 = 0.0629	1090.6 ± 0.5
342.63 K, 9007 kPa, x2 = 0.0629	1091.3 ± 0.5
342.63 K, 10024 kPa, x2 = 0.0629	1092 ± 0.5
342.63 K, 11013 kPa, x2 = 0.0629	1092.7 ± 0.5
342.63 K, 12012 kPa, x2 = 0.0629	1093.4 ± 0.5
342.63 K, 13000 kPa, x2 = 0.0629	1094.1 ± 0.5
342.63 K, 14019 kPa, x2 = 0.0629	1094.8 ± 0.5
342.63 K, 15027 kPa, x2 = 0.0629	1095.4 ± 0.5
342.63 K, 16019 kPa, x2 = 0.0629	1096.1 ± 0.5
342.63 K, 17009 kPa, x2 = 0.0629	1096.8 ± 0.5
342.63 K, 18015 kPa, x2 = 0.0629	1097.5 ± 0.5
342.63 K, 19019 kPa, x2 = 0.0629	1098.2 ± 0.5
342.63 K, 20018 kPa, x2 = 0.0629	1098.8 ± 0.5
342.71 K, 1025 kPa, x2 = 0.9432	640.4 ± 0.5
342.71 K, 2014 kPa, x2 = 0.9432	641.8 ± 0.5
342.71 K, 3011 kPa, x2 = 0.9432	643.3 ± 0.5
342.71 K, 4027 kPa, x2 = 0.9432	644.8 ± 0.5
342.71 K, 5014 kPa, x2 = 0.9432	646.2 ± 0.5
342.71 K, 6027 kPa, x2 = 0.9432	647.6 ± 0.5
342.71 K, 7019 kPa, x2 = 0.9432	649 ± 0.5
342.71 K, 8015 kPa, x2 = 0.9432	650.3 ± 0.5
342.71 K, 9010 kPa, x2 = 0.9432	651.6 ± 0.5
342.71 K, 10003 kPa, x2 = 0.9432	652.9 ± 0.5
